Test results from patent publication US10301284B2, “Therapeutic inhibitory compounds” (LifeSci Pharmaceuticals, Inc., priority 2016, dated 2019).
Like-named read-outs stand apart in the source and are kept apart here.

Target: human Plasma Kallikrein (Homo sapiens (Human), UniProt P03952)
Test: In vitro enzyme inhibition of human plasma kallikrein (Pro-Phe-Arg-AMC cleavage)
Type: biochemical
Protocol: The ability of the compounds disclosed herein to inhibit human plasma kallikrein activity was quantified according to the procedures below.
A 10 mM solution of the test compound was made in DMSO. This solution was serially diluted 1:5 in DMSO to yield 2000, 400, 80, 16, 3.2, 0.64, 0.128, 0.0256 and 0.00512 μM compound test solutions. A control tube containing only DMSO is included. 16 μL of each compound test solution was combined with 384 μL of assay buffer (50 mM Tris-HCl pH 7.5, 150 mM NaCl, 0.01% Triton X-100) to yield a “4× test compound buffer stock”.
Separately, a 40 nM solution of human Plasma Kallikrein (Abcam) and a 93.6 μM solution Pro-Phe-Arg-AMC (Bachem) were made using assay buffer. These solutions are hereby referred to as 4×hPK and 2×PFR-AMC, respectively.
60 μL of each 4× test compound buffer stock was combined with 60 μL of 4×hPK to yield 120 μL of “2× test compound buffer stock/2×hPK”. 50 μL was removed from this mixture and placed into duplicate wells on a Microfluor 1Black U-bottom microtiter plate (Thermo Scientific). This plate was incubated for 5 minutes at 37° C. To each well, 50 μL of pre-warmed 2×PFR-AMC was added to start the enzymatic reaction. Cleavage of PFR-AMC was monitored in a Biotek Synergy H4 reader set at 37° C. Readings are taken every 43 seconds for 1 hour. The highest mean velocity over 20 reads (˜15 minutes) is used to calculate the IC50. The IC50 is calculated using the Gen5 (Biotek Instruments).
The ability of the compounds listed in Table 2 to inhibit human plasma kallikrein activity was determined.

[1] = human plasma kallikrein, PFR-AMC substrate, 37° C., read-out: hPK IC50

human Plasma Kallikrein, sequence (P03952 391-638 limits assumed): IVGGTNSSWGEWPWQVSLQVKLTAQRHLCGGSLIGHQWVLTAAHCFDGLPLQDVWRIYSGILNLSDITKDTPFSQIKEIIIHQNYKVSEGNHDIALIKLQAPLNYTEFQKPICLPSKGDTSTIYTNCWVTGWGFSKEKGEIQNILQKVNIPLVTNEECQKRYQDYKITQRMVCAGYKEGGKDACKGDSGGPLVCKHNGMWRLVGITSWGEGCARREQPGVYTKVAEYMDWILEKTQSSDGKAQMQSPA
human Plasma Kallikrein, sequence (P03952 20-390 partner limits assumed): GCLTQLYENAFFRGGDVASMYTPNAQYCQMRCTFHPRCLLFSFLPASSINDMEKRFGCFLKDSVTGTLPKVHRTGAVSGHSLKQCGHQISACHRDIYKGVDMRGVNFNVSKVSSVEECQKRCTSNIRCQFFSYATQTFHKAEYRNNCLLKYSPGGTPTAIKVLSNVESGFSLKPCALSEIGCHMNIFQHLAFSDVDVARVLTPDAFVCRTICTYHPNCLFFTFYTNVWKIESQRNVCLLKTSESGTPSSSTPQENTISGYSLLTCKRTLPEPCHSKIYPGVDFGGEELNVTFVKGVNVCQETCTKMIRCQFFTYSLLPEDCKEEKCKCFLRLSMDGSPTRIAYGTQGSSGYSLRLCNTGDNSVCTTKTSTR

SMILES | IC50 [1] [nM] | IC50 [nM]
Nc1nccc2cc(CNC(=O)c3nnc(Cc4ccc5ncc(Cl)cc5c4)o3)ccc12 [Example 46, N-((1-aminoisoquinolin-6-yl)methyl)-5-((3-chloroquinolin-6-yl)methyl)-1,3,4-oxadiazole-2-carboxamide] | 100 to 1000 | 
Cc1nc(N)ccc1CNC(=O)c1cn(Cc2ccc3ncc(Cl)cc3c2)nc1C#N [Example 77, N-((6-amino-2-methylpyridin-3-yl)methyl)-1-((3-chloroquinolin-6-yl)methyl)-3-cyano-1H-pyrazole-4-carboxamide] | < 100 | 
Cc1cc(N)nc(C)c1CNC(=O)c1cnn(Cc2cc(F)c3ncc(Cl)cc3c2)c1C#N [Example 70, N-((6-amino-2,4-dimethylpyridin-3-yl)methyl)-1-((3-chloro-8-fluoroquinolin-6-yl)methyl)-5-cyano-1H-pyrazole-4-carboxamide] | > 10000 | 
Cc1nc(N)ccc1CNC(=O)c1oc(Cc2ccc3ncc(Cl)cc3c2)nc1C#N [Example 88, N-((6-amino-2-methylpyridin-3-yl)methyl)-2-((3-chloroquinolin-6-yl)methyl)-4-cyanooxazole-5-carboxamide] | 100 to 1000 | 
N#Cc1nn(Cc2ccc3ncc(Cl)cc3c2)cc1C(=O)NCc1ccc2c(N)nccc2c1 [Example 49, N-((1-aminoisoquinolin-6-yl)methyl)-1-((3-chloroquinolin-6-yl)methyl)-3-cyano-1H-pyrazole-4-carboxamide] | < 100 | 
O=C(NCc1cc2c(Cl)c[nH]c2cc1F)c1nnc(Cc2ccc3ncc(Cl)cc3c2)o1 [Example 44, N-((3-chloro-6-fluoro-1H-indol-5-yl)methyl)-5-((3-chloroquinolin-6-yl)methyl)-1,3,4-oxadiazole-2-carboxamide] | 100 to 1000 | 
Cc1cc(N)nc(C)c1CNC(=O)c1cnn(Cc2cc(F)c3ncc(Cl)cc3c2)c1C(N)=O [Example 71, N4-((6-amino-2,4-dimethylpyridin-3-yl)methyl)-1-((3-chloro-8-fluoroquinolin-6-yl)methyl)-1H-pyrazole-4,5-dicarboxamide] | > 10000 | 
O=C(NCc1ccc2[nH]cc(Cl)c2c1F)c1nnc(Cc2ccc3ncc(Cl)cc3c2)o1 [Example 43, N-((3-chloro-4-fluoro-1H-indol-5-yl)methyl)-5-((3-chloroquinolin-6-yl)methyl)-1,3,4-oxadiazole-2-carboxamide] | 100 to 1000 | 
Cc1cc(N)nc(C)c1CNC(=O)c1cnc(Cc2ccc3ncc(Cl)cc3c2)n1C [Example 105, N-((6-amino-2,4-dimethylpyridin-3-yl)methyl)-2-((3-chloroquinolin-6-yl)methyl)-1-methyl-1H-imidazole-5-carboxamide] | 1000 to 10000 | 
Cc1cc(N)nc(C)c1CNC(=O)c1c2c(N)cccc2nn1Cc1ccc2ncc(Cl)cc2c1 [Example 140, 4-amino-N-((6-amino-2,4-dimethylpyridin-3-yl)methyl)-2-((3-chloroquinolin-6-yl)methyl)-2H-indazole-3-carboxamide] | > 10000 | 
Cc1cnc2c(C#N)cc(Cn3cc(C(=O)NCc4c(C)cc(N)nc4C)c(C(N)=O)n3)cc2c1 [Example 63, N4-((6-amino-2,4-dimethylpyridin-3-yl)methyl)-1-((8-cyano-3-methylquinolin-6-yl)methyl)-1H-pyrazole-3,4-dicarboxamide] | 100 to 1000 | 
COC(=O)c1nc(C(=O)NCc2c(C)cc(N)nc2C)nn1Cc1ccc2ncc(Cl)cc2c1 [Example 102, methyl 3-(((6-amino-2,4-dimethylpyridin-3-yl)methyl)carbamoyl)-1-((3-chloroquinolin-6-yl)methyl)-1H-1,2,4-triazole-5-carboxylate] | > 10000 | 
Cc1cc(N)nc(C)c1CNC(=O)c1nn(Cc2ccc3ncc(Cl)cc3c2)c2ccnc(Cl)c12 [Example 119, N-((6-amino-2,4-dimethylpyridin-3-yl)methyl)-4-chloro-1-((3-chloroquinolin-6-yl)methyl)-1H-pyrazolo[4,3-c]pyridine-3-carboxamide] |  | 100 to 1000
COc1ccc2c(n1)c(C(=O)NCc1c(C)cc(N)nc1C)nn2Cc1ccc2ncc(Cl)cc2c1 [Example 137, N-((6-amino-2,4-dimethylpyridin-3-yl)methyl)-1-((3-chloroquinolin-6-yl)methyl)-5-methoxy-1H-pyrazolo[4,3-b]pyridine-3-carboxamide] |  | 100 to 1000
Cc1cc(N)nc(C)c1CNC(=O)c1cn(C)c(Cc2ccc3ncc(Cl)cc3c2)n1 [Example 104, N-((6-amino-2,4-dimethylpyridin-3-yl)methyl)-2-((3-chloroquinolin-6-yl)methyl)-1-methyl-1H-imidazole-4-carboxamide] | > 10000 | 
Cc1cc(N)nc(C)c1CNC(=O)c1cn(Cc2ccc3ncc(Cl)cc3c2)c2ncnc(C#N)c12 [Example 136, N-((6-amino-2,4-dimethylpyridin-3-yl)methyl)-7-((3-chloroquinolin-6-yl)methyl)-4-cyano-7H-pyrrolo[2,3-d]pyrimidine-5-carboxamide] |  | 100 to 1000
N#Cc1nn(Cc2cc(F)c3ncc(Cl)cc3c2)cc1C(=O)NCc1n[nH]c2ccc(Cl)cc12 [Example 55, N-((5-chloro-1H-indazol-3-yl)methyl)-1-((3-chloro-8-fluoroquinolin-6-yl)methyl)-3-cyano-1H-pyrazole-4-carboxamide] | 100 to 1000 | 
Cc1cc(N)nc(C)c1CNC(=O)c1cnn(Cc2ccc3ncc(Cl)cc3c2)c1C#N [Example 40, N-((6-amino-2,4-dimethylpyridin-3-yl)methyl)-1-((3-chloroquinolin-6-yl)methyl)-5-cyano-1H-pyrazole-4-carboxamide] | 1000 to 10000 | 
O=C(NCc1n[nH]c2ccc(Cl)cc12)c1nnc(Cc2ccc3ncc(Cl)cc3c2)o1 [Example 42, N-((5-chloro-1H-indazol-3-yl)methyl)-5-((3-chloroquinolin-6-yl)methyl)-1,3,4-oxadiazole-2-carboxamide] | 100 to 1000 | 
Cc1nc(N)ccc1CNC(=O)c1ncc(Cc2ccc3ncc(Cl)cc3c2)o1 [Example 84, N-((6-amino-2-methylpyridin-3-yl)methyl)-5-((3-chloroquinolin-6-yl)methyl)oxazole-2-carboxamide] | < 100 | 
N#Cc1nn(Cc2ccc3ncc(Cl)cc3c2)cc1C(=O)NCc1cc2c(Cl)c[nH]c2cc1F [Example 51, N-((3-chloro-6-fluoro-1H-indol-5-yl)methyl)-1-((3-chloroquinolin-6-yl)methyl)-3-cyano-1H-pyrazole-4-carboxamide] | 100 to 1000 | 
CCOC(=O)c1nc(C(=O)NCc2c(C)cc(N)nc2C)nn1Cc1ccc2ncc(Cl)cc2c1 [Example 142, ethyl 3-(((6-amino-2,4-dimethylpyridin-3-yl)methyl)carbamoyl)-1-((3-chloroquinolin-6-yl)methyl)-1H-1,2,4-triazole-5-carboxylate] | > 10000 | 
Cc1cc(N)nc(C)c1CNC(=O)c1nn(Cc2ccc3ncc(Cl)cc3c2)cc1[N+](=O)[O-] [Example 18, N-((6-amino-2,4-dimethylpyridin-3-yl)methyl)-1-((3-chloroquinolin-6-yl)methyl)-4-nitro-1H-pyrazole-3-carboxamide] | < 100 | 
N#Cc1nn(Cc2ccc3ncc(Cl)cc3c2)cc1C(=O)NCc1n[nH]c2ccc(Cl)cc12 [Example 48, N-((5-chloro-1H-indazol-3-yl)methyl)-1-((3-chloroquinolin-6-yl)methyl)-3-cyano-1H-pyrazole-4-carboxamide] | 100 to 1000 | 
Cc1cc(N)nc(C)c1CNC(=O)c1nn(Cc2ccc3ncc(Cl)cc3c2)c2cnc(C#N)cc12 [Example 130, N-((6-amino-2,4-dimethylpyridin-3-yl)methyl)-1-((3-chloroquinolin-6-yl)methyl)-5-cyano-1H-pyrazolo[3,4-c]pyridine-3-carboxamide] | < 100 | 
Cc1cc(N)nc(C)c1CNC(=O)c1cn(Cc2ccc3ncc(Cl)cc3c2)c2ncc(C#N)cc12 [Example 135, N-((6-amino-2,4-dimethylpyridin-3-yl)methyl)-1-((3-chloroquinolin-6-yl)methyl)-5-cyano-1H-pyrrolo[2,3-b]pyridine-3-carboxamide] |  | 100 to 1000
Cc1cc(N)nc(C)c1CNC(=O)c1cn(Cc2ccc3ncc(Cl)cc3c2)nc1CO [Example 92, N-((6-amino-2,4-dimethylpyridin-3-yl)methyl)-1-((3-chloroquinolin-6-yl)methyl)-3-(hydroxymethyl)-1H-pyrazole-4-carboxamide] | < 100 | 
Cc1cc(N)nc(C)c1CNC(=O)c1cn(Cc2ccc3ncc(Cl)cc3c2)c(CN)n1 [Example 112, N-((6-amino-2,4-dimethylpyridin-3-yl)methyl)-2-(aminomethyl)-1-((3-chloroquinolin-6-yl)methyl)-1H-imidazole-4-carboxamide] | 100 to 1000 | 
Cc1nc(N)ccc1CNC(=O)c1nnc(Cc2ccc3ncc(Cl)cc3c2)[nH]1 [Example 97, N-((6-amino-2-methylpyridin-3-yl)methyl)-5-((3-chloroquinolin-6-yl)methyl)-4H-1,2,4-triazole-3-carboxamide] | < 100 | 
Cc1cc(N)nc(C)c1CNC(=O)c1cn(Cc2ccc3ncc(Cl)cc3c2)c(C(N)=O)n1 [Example 111, N4-((6-amino-2,4-dimethylpyridin-3-yl)methyl)-1-((3-chloroquinolin-6-yl)methyl)-1H-imidazole-2,4-dicarboxamide] | 100 to 1000 | 
